Assay results as given in ChEMBL document CHEMBL1909046, “DrugMatrix in vitro pharmacology data”.

biological target: T1, Amine oxidase [flavin-containing] A (Homo sapiens, UniProt P21397); assay: DRUGMATRIX: Monoamine Oxidase MAO-A enzyme inhibition (substrate: Kynuramine); set-up: species or system BTI-TN-5B1-4; conditions: Not Active = under 50% inhibition at 10 µM; read-out: IC50
T1 sequence (P21397 whole entry): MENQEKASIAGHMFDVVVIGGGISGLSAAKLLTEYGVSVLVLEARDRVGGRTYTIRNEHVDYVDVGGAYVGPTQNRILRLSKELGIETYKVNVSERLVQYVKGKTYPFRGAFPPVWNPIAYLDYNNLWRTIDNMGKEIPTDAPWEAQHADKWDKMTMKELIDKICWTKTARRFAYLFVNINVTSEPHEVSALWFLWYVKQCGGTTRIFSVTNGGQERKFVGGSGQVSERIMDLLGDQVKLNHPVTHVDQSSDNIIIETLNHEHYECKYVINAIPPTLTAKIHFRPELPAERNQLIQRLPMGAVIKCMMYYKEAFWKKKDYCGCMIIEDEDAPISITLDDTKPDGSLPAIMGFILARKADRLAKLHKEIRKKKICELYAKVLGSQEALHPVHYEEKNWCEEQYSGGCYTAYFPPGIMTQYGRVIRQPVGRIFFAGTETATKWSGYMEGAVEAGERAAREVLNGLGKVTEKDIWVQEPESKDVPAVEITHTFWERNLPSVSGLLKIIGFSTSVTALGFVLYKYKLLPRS

With `Cc1cc(O)cc(C)c1Cl` [CHLOROXYLENOL] as the compound, how does the IC50 read?
Its IC50 is 1830 nM.

same assay, conditions: bti-tn-5b1-4; Not Active = under 50% inhibition at 10 µM

For `CNC1=Nc2ccc(Cl)cc2C(c2ccccc2)=[N+]([O-])C1` [CHLORDIAZEPOXIDE], which IC50 is on record?
The IC50 was “Not Active”.

Which IC50 does the source give for `CCCNC(=O)NS(=O)(=O)c1ccc(Cl)cc1` [CHLORPROPAMIDE] here?
The IC50 was “Not Active”.

Which IC50 does the source give for `NS(=O)(=O)c1cc(C2(O)NC(=O)c3ccccc32)ccc1Cl` (configuration not stated) [CHLORTHALIDONE] here?
The IC50 was “Not Active”.

Which IC50 does the source give for `O=C(O)CC(O)(CC(=O)O)C(=O)O` [CITRIC ACID] here?
Its IC50 is “Not Active”.

Which IC50 does the source give for `CC(C)NCC(O)c1ccccc1Cl` (configuration not stated) [CLORPRENALINE] here?
Its IC50 is “Not Active”.

biological target: Sodium-dependent dopamine transporter (Homo sapiens, UniProt Q01959); assay: DRUGMATRIX: Dopamine Transporter radioligand binding (ligand: [125I] RTI-55); assay type: cell membranes, CHO-K1, Membrane; conditions: cho-k1; Not Active = under 50% inhibition at 10 µM
Sequence (Q01959 whole entry): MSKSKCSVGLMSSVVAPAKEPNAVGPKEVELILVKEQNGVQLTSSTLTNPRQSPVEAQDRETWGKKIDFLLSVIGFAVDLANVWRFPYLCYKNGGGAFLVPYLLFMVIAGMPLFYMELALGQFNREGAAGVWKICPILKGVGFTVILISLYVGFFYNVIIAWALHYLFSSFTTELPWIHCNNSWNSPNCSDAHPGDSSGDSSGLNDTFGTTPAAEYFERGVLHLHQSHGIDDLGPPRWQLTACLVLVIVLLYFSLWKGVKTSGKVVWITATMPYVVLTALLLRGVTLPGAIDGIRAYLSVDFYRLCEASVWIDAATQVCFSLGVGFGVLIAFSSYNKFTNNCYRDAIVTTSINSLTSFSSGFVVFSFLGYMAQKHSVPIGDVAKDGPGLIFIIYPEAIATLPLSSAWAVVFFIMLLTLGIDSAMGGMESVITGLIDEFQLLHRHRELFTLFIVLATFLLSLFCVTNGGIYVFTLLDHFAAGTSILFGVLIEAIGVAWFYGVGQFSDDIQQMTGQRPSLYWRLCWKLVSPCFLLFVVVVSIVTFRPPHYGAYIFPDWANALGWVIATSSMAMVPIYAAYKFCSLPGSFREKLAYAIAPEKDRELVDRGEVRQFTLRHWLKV

For `CNC1=Nc2ccc(Cl)cc2C(c2ccccc2)=[N+]([O-])C1` [CHLORDIAZEPOXIDE], which IC50 is on record?
Its IC50 is “Not Active”.

Which IC50 does the source give for `Cc1cc(O)cc(C)c1Cl` [CHLOROXYLENOL] here?
Its IC50 is “Not Active”.

For `CCCNC(=O)NS(=O)(=O)c1ccc(Cl)cc1` [CHLORPROPAMIDE], which IC50 is on record?
Its IC50 is “Not Active”.

With `NS(=O)(=O)c1cc(C2(O)NC(=O)c3ccccc32)ccc1Cl` (configuration not stated) [CHLORTHALIDONE] as the compound, how does the IC50 read?
The IC50 was “Not Active”.

Which IC50 does the source give for `O=C(O)CC(O)(CC(=O)O)C(=O)O` [CITRIC ACID] here?
The IC50 was “Not Active”.

With `CC(C)NCC(O)c1ccccc1Cl` (configuration not stated) [CLORPRENALINE] as the compound, how does the IC50 read?
Its IC50 is “Not Active”.

biological target: T2, Alpha-1D adrenergic receptor (Homo sapiens, UniProt P25100); assay type: cell membranes, HEK293, Membrane; conditions: hek293; note: in other assays of this panel Not Active means under 50% inhibition at 10 µM
T2 sequence (P25100 whole entry): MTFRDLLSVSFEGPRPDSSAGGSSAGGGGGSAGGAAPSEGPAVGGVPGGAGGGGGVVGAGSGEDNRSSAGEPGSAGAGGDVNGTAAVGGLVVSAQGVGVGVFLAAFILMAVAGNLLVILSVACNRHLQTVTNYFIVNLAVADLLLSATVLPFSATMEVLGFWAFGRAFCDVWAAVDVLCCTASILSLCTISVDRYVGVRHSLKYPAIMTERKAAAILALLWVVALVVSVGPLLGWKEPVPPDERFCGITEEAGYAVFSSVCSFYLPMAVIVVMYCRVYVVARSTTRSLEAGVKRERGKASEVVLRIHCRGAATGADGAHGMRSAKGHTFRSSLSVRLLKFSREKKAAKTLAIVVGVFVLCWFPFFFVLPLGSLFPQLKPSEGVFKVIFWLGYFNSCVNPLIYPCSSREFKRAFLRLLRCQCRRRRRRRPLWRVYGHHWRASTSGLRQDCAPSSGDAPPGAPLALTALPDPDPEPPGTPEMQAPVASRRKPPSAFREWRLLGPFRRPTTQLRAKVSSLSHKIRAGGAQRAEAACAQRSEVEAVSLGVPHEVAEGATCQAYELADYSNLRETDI

With `CNC1=Nc2ccc(Cl)cc2C(c2ccccc2)=[N+]([O-])C1` [CHLORDIAZEPOXIDE] as the compound, how does the IC50 read?
The IC50 was “Not Active”.

With `Cc1cc(O)cc(C)c1Cl` [CHLOROXYLENOL] as the compound, how does the IC50 read?
Its IC50 is “Not Active”.

With `CCCNC(=O)NS(=O)(=O)c1ccc(Cl)cc1` [CHLORPROPAMIDE] as the compound, how does the IC50 read?
Its IC50 is “Not Active”.

Which IC50 does the source give for `NS(=O)(=O)c1cc(C2(O)NC(=O)c3ccccc32)ccc1Cl` (configuration not stated) [CHLORTHALIDONE] here?
The IC50 was “Not Active”.

For `O=C(O)CC(O)(CC(=O)O)C(=O)O` [CITRIC ACID], which IC50 is on record?
Its IC50 is “Not Active”.

For `CC(C)NCC(O)c1ccccc1Cl` (configuration not stated) [CLORPRENALINE], which IC50 is on record?
Its IC50 is “Not Active”.

biological target: T3, Neuropeptide Y receptor type 1 (Homo sapiens, UniProt P25929); assay type: cell membranes, Membrane; conditions: sk-n-mc; note: in other assays of this panel Not Active means under 50% inhibition at 10 µM
T3 sequence (P25929 whole entry): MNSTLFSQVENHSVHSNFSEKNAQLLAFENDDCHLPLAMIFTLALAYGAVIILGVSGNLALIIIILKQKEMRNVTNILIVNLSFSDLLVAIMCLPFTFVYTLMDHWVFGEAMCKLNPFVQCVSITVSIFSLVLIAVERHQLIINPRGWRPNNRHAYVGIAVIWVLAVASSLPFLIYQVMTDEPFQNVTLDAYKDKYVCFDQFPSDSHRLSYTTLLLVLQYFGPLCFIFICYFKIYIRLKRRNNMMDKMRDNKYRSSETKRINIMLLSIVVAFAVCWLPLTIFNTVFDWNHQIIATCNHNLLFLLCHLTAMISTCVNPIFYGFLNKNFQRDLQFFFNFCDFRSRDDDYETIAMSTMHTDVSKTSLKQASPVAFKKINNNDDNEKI

Which IC50 does the source give for `CNC1=Nc2ccc(Cl)cc2C(c2ccccc2)=[N+]([O-])C1` [CHLORDIAZEPOXIDE] here?
Its IC50 is “Not Active”.

For `Cc1cc(O)cc(C)c1Cl` [CHLOROXYLENOL], which IC50 is on record?
Its IC50 is “Not Active”.

For `CCCNC(=O)NS(=O)(=O)c1ccc(Cl)cc1` [CHLORPROPAMIDE], which IC50 is on record?
The IC50 was “Not Active”.

For `NS(=O)(=O)c1cc(C2(O)NC(=O)c3ccccc32)ccc1Cl` (configuration not stated) [CHLORTHALIDONE], which IC50 is on record?
The IC50 was “Not Active”.

Which IC50 does the source give for `O=C(O)CC(O)(CC(=O)O)C(=O)O` [CITRIC ACID] here?
Its IC50 is “Not Active”.

Which IC50 does the source give for `CC(C)NCC(O)c1ccccc1Cl` (configuration not stated) [CLORPRENALINE] here?
Its IC50 is “Not Active”.

biological target: T4, B2 bradykinin receptor (Homo sapiens, UniProt P30411); assay type: cell membranes, Membrane; conditions: chem-1; note: in other assays of this panel Not Active means under 50% inhibition at 10 µM
T4 sequence (P30411 whole entry): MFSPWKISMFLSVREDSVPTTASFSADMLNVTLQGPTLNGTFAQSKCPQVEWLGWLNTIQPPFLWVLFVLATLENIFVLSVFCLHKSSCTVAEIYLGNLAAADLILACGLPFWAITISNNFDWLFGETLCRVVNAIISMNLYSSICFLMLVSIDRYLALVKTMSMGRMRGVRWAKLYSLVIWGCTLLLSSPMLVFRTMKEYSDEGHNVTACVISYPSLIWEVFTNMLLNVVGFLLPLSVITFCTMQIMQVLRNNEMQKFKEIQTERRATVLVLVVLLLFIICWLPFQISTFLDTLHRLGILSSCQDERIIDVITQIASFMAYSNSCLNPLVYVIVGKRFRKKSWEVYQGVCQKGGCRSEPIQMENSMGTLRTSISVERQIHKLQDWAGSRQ

For `CNC1=Nc2ccc(Cl)cc2C(c2ccccc2)=[N+]([O-])C1` [CHLORDIAZEPOXIDE], which IC50 is on record?
Its IC50 is “Not Active”.

With `Cc1cc(O)cc(C)c1Cl` [CHLOROXYLENOL] as the compound, how does the IC50 read?
Its IC50 is “Not Active”.

For `CCCNC(=O)NS(=O)(=O)c1ccc(Cl)cc1` [CHLORPROPAMIDE], which IC50 is on record?
Its IC50 is “Not Active”.

Which IC50 does the source give for `NS(=O)(=O)c1cc(C2(O)NC(=O)c3ccccc32)ccc1Cl` (configuration not stated) [CHLORTHALIDONE] here?
The IC50 was “Not Active”.

Which IC50 does the source give for `O=C(O)CC(O)(CC(=O)O)C(=O)O` [CITRIC ACID] here?
Its IC50 is “Not Active”.

With `CC(C)NCC(O)c1ccccc1Cl` (configuration not stated) [CLORPRENALINE] as the compound, how does the IC50 read?
Its IC50 is “Not Active”.

tested on: not listed separately; assay: DRUGMATRIX: Phorbol Ester radioligand binding (ligand: [3H] PDBu); assay type: cell membranes, Mus musculus, ICR, Brain, Membrane; conditions: Not Active = under 50% inhibition at 10 µM

What does the source list for `CNC1=Nc2ccc(Cl)cc2C(c2ccccc2)=[N+]([O-])C1` [CHLORDIAZEPOXIDE]?
IC50: Not Active; Ki: Not Active

What does the source list for `Cc1cc(O)cc(C)c1Cl` [CHLOROXYLENOL]?
IC50: Not Active; Ki: Not Active

For `CCCNC(=O)NS(=O)(=O)c1ccc(Cl)cc1` [CHLORPROPAMIDE], which IC50 is on record?
The IC50 was “Not Active”.

And the Ki?
The Ki was “Not Active”.

For `NS(=O)(=O)c1cc(C2(O)NC(=O)c3ccccc32)ccc1Cl` (configuration not stated) [CHLORTHALIDONE], which IC50 is on record?
Its IC50 is “Not Active”.

And the Ki?
Its Ki is “Not Active”.

Which IC50 does the source give for `O=C(O)CC(O)(CC(=O)O)C(=O)O` [CITRIC ACID] here?
The IC50 was “Not Active”.

What about the Ki of the same compound?
Its Ki is “Not Active”.

For `CC(C)NCC(O)c1ccccc1Cl` (configuration not stated) [CLORPRENALINE], which IC50 is on record?
The IC50 was “Not Active”.

And the Ki?
The Ki was “Not Active”.
